The results in this text go back to patent US7071188B2 (priority 2001, dated 2006).

One assay deals with Fusarium (FFUSARGRAMI). The experiment in a line: Seed treatment test for field corn and sweet corn, in-furrow Fusarium inoculation (Example 1). As to conditions: rates gai/100 kg: Apron XL 3LS 1, Maxim XL 3.5, CGA-301940 2.5, CAPTAN 55 + Allegiance-FL 2. The format is in vivo, Fusarium on corn variety H-8874RR. An excerpt:
(§1) Seed Treatment Test for Field Corn and Sweet Corn

For assay [1], the system named is natural disease pressure on corn variety N58-D1. Kind of assay: Seed treatment test for field corn and sweet corn, no inoculation, natural disease pressure (Example 2). In kind it is in vivo. The following applies: rates gai/100 kg: Apron XL 3LS 1, Maxim XL 3.5, CGA-301940 2.5, CAPTAN 55 + Allegiance-FL 2.
Excerpt: as §1

The structures appear in SMILES notation.

As for `CO/C=C(/C(=O)OC)c1ccccc1Oc1cc(Oc2ccccc2C#N)ncn1` [CGA-301940, Azoxystrobin], in the assay with Fusarium (FFUSARGRAMI) (27 DAP, vs Check (inoculated)), the “Stand Count percent increase (27 DAP)” value is listed as −10.3%. Besides, the “Stand Count (No Plants/Plot) 27 DAP” value with Fusarium (FFUSARGRAMI) (27 DAP) was determined as 13.0b No Plants/Plot. Besides, in the assay on Fusarium (FFUSARGRAMI) (47 DAP, vs Check (inoculated)), the “% Vigor percent increase (47 DAP)” value is 6.6% and the “Stand Count percent increase (47 DAP)” value amounted to 9.8%. In addition, in the assay on Fusarium (FFUSARGRAMI) (47 DAP), the “% Vigor 47 DAP” value stood at 80.0a % and the “Stand Count (No Plants/Plot) 47 DAP” value was 42.3d No Plants/Plot. In addition, the “Stand Count percent increase (33 DAP)” value in assay [1] (33 DAP, vs Check (non-inoculated)) was found to be 4.5%. Further, the “Stand Count (No Plants/Plot) 33 DAP” value in assay [1] (33 DAP) was determined as 46.5c No Plants/Plot. Also, in assay [1] (49 DAP, vs Check (non-inoculated)), the “Stand Count percent increase (49 DAP)” value came to 6.0%. Further, the “Stand Count (No Plants/Plot) 49 DAP” value in assay [1] (49 DAP) is recorded as 52.8c No Plants/Plot.
